Source: patent US20250283035A1, “MORPHOGENIC COMPOUND-RELEASING MICROSPHERES AND USE IN BIOINK” (UVic Industry Partnerships Inc., priority 2018, published 2025)
“And” between values parts separate entries of the source, which are not always exact repeats. Identical values can stand only once. Like-named read-outs stand apart in the source and are kept apart here.

What was measured:
[1] = drug in microspheres, literature values, cited from earlier work
[2] = cited from earlier work
[3] = 46-day purmorphamine release study from PCL microspheres in PBS; assay type: physicochemical
Procedure: A 46-day release study was performed to determine the release kinetics of purmorphamine. Each sample contained 10 mg of microspheres and 1 ml of PBS placed on 1.5 ml micro tubes (Axygen®). Samples for each day of collection (n=3) were placed on a VWR® mini shaker at 330 rpm at 37° C. and were collected every 4 days. After collection, samples were washed with de-ionized water and freeze-dried for further analysis. The drug was extracted from the microspheres and then quantified with high-performance liquid chromatography (HPLC) to estimate the puro concentration in the microspheres. Next, 10 mg of microspheres was placed in 1.5 ml microtubes in triplicate. […] The samples were then placed on the vortex mixer (Eppendorf® MixMate®) at 2500 rpm for 5 minutes. […] The samples were then placed at −80° C. for 5 minutes followed by centrifugation (Eppendorf 5424) at 1500 rpm for five minutes. The samples were filtered using 0.2 μm PTFE syringe filters before adding the supernatant to amber vials. HPLC was performed using an Agilent 1200 equipped with quaternary pump and diode-array detector (DAD) to quantify the amount of puro present in samples. A standard of puro with eleven dilutions of a stock solution diluted in ACN was used to determine the concentrations of the samples. The column used was an Eclipse Plus C18 (Agilent) with 5 μm particle size, 4.6 mm internal diameter (ID), and was 150-mm long with similar phase and ID guard column. Samples were analyzed at 300 nm after mass spectroscopy was used to generate a spectrum for puro. Mass spectroscopy information was acquired using an Ultimate 3000 HPLC system connected to an Orbitrap (Thermo Fisher Scientific). The system was used in direct infusion mode with no separation. Solvents used for this analysis were HPLC-grade ACN mixed with […] dispensed from a Milli-Q integral purification system (Millipore, ON, Canada). Both contained 0.1% V/V trifluoroacetic acid (TFA) (Fisher Scientific, Hampton, NH). […] ChemStation software was used for data analysis with auto-integration adjusted manually when needed.

[4] = Guggulsterone encapsulation efficiency (extraction, HPLC-MS); assay type: physicochemical; details: PCL microspheres, 0.6 μg/mg GS/PCL; of total GS added
Procedure: The amount of GS encapsulated per unit weight of microspheres was determined by extracting the drug from the fabricated microspheres. A measured amount of lyophilized microspheres was placed in a 1.5 mL propylene microtube, and 200 μL of ACN was added to each sample. The samples were vortexed at 3000 rpm for 30 seconds, vortexed for 5 minutes at 350 rpm (Eppendorf® MixMate®), and mixed with a micropipette for 10 seconds. These mixing steps were repeated twice to dissolve the PCL. Next, 1000 μL of additional ACN was added to the samples and mixed by micropipette for 10 seconds and then vortexed at 3000 rpm for 30 seconds. The solution was then centrifuged at 22° C. and 13000 rpm for 5 min using an Eppendorf 5424 Microcentrifuge. Thereafter, 1000 μL of the supernatant was transferred to a microtube and diluted as necessary for high performance liquid chromatography-mass spectrometry (HPLC-MS). The concentration of the drug in the sample was determined using HPLC-MS (Ultimate 3000 MSQ, Thermo Scientific with Chromeleon™ software) and run against a GS standard composed of five dilutions of a stock solution composed of GS dissolved in ACN. […]

[5] = ref [50]; cited from earlier work
[6] = Degradation of fibrin scaffolds containing drug (Example 3)
hiPS aggregates [7] = assay: Flow cytometry of βIII-tubulin (TUJ1), Olig2, GFAP in hiPS aggregates (Example 2); assay type: cell-based, human; design: unit of the concentration uncertain
Procedure: ReLeSR™ was used to select and remove undifferentiated hiPSs from the wells. Uniform hiPS aggregates were formed by adding a single cell suspension in STEMdiff™ Neural Induction Medium of 1×106 hiPSs to wells in AggreWell™ 800 plates and centrifuged for 5 min at 100×g to deposit the cells at the bottom of each microwell. Before incorporation with the cells, the microspheres were sterilized by low power air-plasma treatment (Harrick PDC-32G) for 30 seconds as described previously. When forming microsphere-incorporated hiPS aggregates, 0.5 mg of microspheres suspended in STEMdiff™ Neural Induction Medium was added to each AggreWell™ 800 well for a total of 2 mL of media in each well and centrifuged for 5 min at 100×g (FIGS. 11A-11B). The aggregates in the AggreWell™ 800 plates were maintained in 2 mL of STEMdiff™ Neural Induction Medium with daily media changes for 5 days. On day 5, the aggregates were harvested for immunocytochemistry or transferred to PLO/laminin-coated 24-well plates at a single aggregate per well for the remaining duration of the cell study (until day 12 or day 20). […] Negative control treatments contained aggregates without microspheres and media without soluble drug added. […]
Cell marker expression was quantified with flow cytometry on day 20 for β-tubulin III, Olig-2, and GFAP. […]

hiPS aggregates [8] = assay: Neurite morphology analysis of hiPS aggregates, IncuCyte (Example 2); assay type: cell-based, human; details: day 12
Procedure: ReLeSR™ was used to select and remove undifferentiated hiPSs from the wells. Uniform hiPS aggregates were formed by adding a single cell suspension in STEMdiff™ Neural Induction Medium of 1×106 hiPSs to wells in AggreWell™ 800 plates and centrifuged for 5 min at 100×g to deposit the cells at the bottom of each microwell. Before incorporation with the cells, the microspheres were sterilized by low power air-plasma treatment (Harrick PDC-32G) for 30 seconds as described previously. […]
Immunostained cell aggregates were imaged with an IncuCyte® ZOOM automatic live-cell imaging system (Essen BioScience, Ann Arbor, MI) at 10× magnification. Quantification of the morphological metrics of neurite length and branch points was performed using IncuCyte® ZOOM Software (2016A). Using the NeuroTrack™ software module, day 12 and day 20 green channel fluorescence (anti-beta-tubulin III positive) images were analyzed by masking the total neurite coverage and calculating the average length and branch points with the same processing definition. The cell aggregate area was analyzed for day 12 images using a NeuroTrack™ software processing definition, whereas a Basic Analyzer processing definition (used for confluence masking) was used to analyze the day 20 images. […]

[9] = cited from earlier work; remark: listed apart in the source
[10] = In vitro guggulsterone release study from PCL microspheres in PBS; assay type: physicochemical
Procedure: In vitro release studies were performed in triplicate. Ten milligrams of microspheres was suspended in 1 mL of PBS in a microtube. The tubes were then loaded onto a Sarstedt Sarmix mr-1 tube rotator and incubated at 37° C. The PBS supernatant for each tube was replaced every 2 days while tubes were removed and collected from the rotator at the following predetermined time points: day 2, 4, 8, 12, 16, 20, 24, 28, 36, and 44. For the collected tubes, the PBS supernatant was removed, and the microspheres were washed with deionized water, lyophilized, and weighed. The remaining GS concentration inside the microspheres was determined as previously described by dissolving microspheres with DCM, extracting the drug/precipitating PCL with 100% ethanol, and reading the absorbance at 255 nm using a Tecan Infinite® M200Pro plate reader (Gomez, et al., 2015). The amount of GS released was calculated by subtracting the GS remaining in the microspheres from the theoretical GS present in each amount of microspheres at day 0. Percentages of the drug that were assumed to be released for each sample day were calculated by comparing drug amounts leftover and initial amounts of the drug inside the microspheres to create a cumulative release graph.

[11] = quoted in Example 1 from ref [42]; cited from earlier work
[12] = if release rate consistent beyond 44 days

O=C1CN=C(c2ccccc2Cl)c2cc([N+](=O)[O-])ccc2N1 [Clonazepam]
encapsulation efficiency, previously reported [1]: 72.6-95.1%

CC1=C(/C=C/C(C)=C/C=C/C(C)=C/C(=O)O)C(C)(C)CCC1 [RA, retinoic acid]
encapsulation efficiency, previously reported [1]: 60.0%
encapsulation efficiency, previously reported ([1]; listed as retinoic acid): ~60%
cumulative RA release from PCL microspheres ([2]; day 28, RA concentration 7.5 times greater): ~53%
cumulative RA release from PCL microspheres ([2]; day 28, lower RA concentration): 28%

CC(=O)OCC(=O)[C@@]1(O)CC[C@H]2[C@@H]3CCC4=CC(=O)CC[C@]4(C)[C@H]3[C@@H](O)C[C@@]21C [hydrocortisone 21-acetate]
encapsulation efficiency, previously reported [1]: ~55%

C[C@]12CCC(=O)C=C1CC[C@@H]1[C@@H]2[C@@H](O)C[C@@]2(C)[C@H]1CC[C@]2(O)C(=O)CO [hydrocortisone]
encapsulation efficiency, previously reported [1]: ~9%

c1ccc2c(Oc3nc(Nc4ccc(N5CCOCC5)cc4)c4ncn(C5CCCCC5)c4n3)cccc2c1 [puro, purmorphamine]
cumulative puro release ([3]; day 28): 68%
cumulative puro release ([3]; day 44): ~87%
cumulative puro release ([3]; day 46, of theoretically encapsulated drug): 91%
puro released on average per day ([3]; from 0.34 mg of puro-loaded microspheres added to cell aggregates): ~0.0748 µg
puro released every day ([3]; from 10 mg of microspheres): 2.2 µg

guggulsterone [GS]
GS encapsulation efficiency [4]: 42.4±3.5% and ~42%
susceptibility to degradation [5]: susceptible to degradation, including photodegradation
degradation of fibrin scaffolds containing the drug [6]: degraded much faster than samples containing RA
TUJ1 expression (flow cytometry) (hiPS aggregates [7]; day 20, soluble GS at 0.25 µM): ~4%
TUJ1 expression (flow cytometry) (hiPS aggregates [7]; day 20, soluble GS at 2.5 µM): ~7%
neurite length per cell cluster area (hiPS aggregates [8]): greater neurite length compared to the negative control
cumulative GS release, previously reported ([9]; day 28, quoted in Example 1 from refs [40, 42]): 45%
cumulative GS release, previously reported ([9]; day 44, quoted in Example 1 from refs [40, 42]): 55%
concentration of GS released ([10]; 0.5 mg of microspheres per aggregate-forming well): ~0.93 ng/mL
cumulative GS release ([10]; day 28): ~45%
cumulative GS release ([10]; day 44 (final day), of drug theoretically encapsulated): ~60% and ~62%
average release of GS per day ([10]; from 10 mg of microspheres, slope of graph): 37 ng
additional duration of GS delivery beyond 44 days [10, 12]: 27 days
total duration of drug release [10, 12]: 71 days
total amount of guggulsterone encapsulated ([10]; in 10 mg of microspheres): ~2550 ng
theoretical total amount of drug initially in each sample ([10]; in 10 mg of microspheres, day 0): ~2.5 µg
GS encapsulation efficiency, previously reported [11]: 42.4%
